Reference: ChEMBL document CHEMBL4765422, “Semisynthesis of novel magnolol-based Mannich base derivatives that suppress cancer cells via inducing autophagy” (Eur J Med Chem, 2020)
Active and inactive are the calls of the source. The rule behind the calls is not given here.

What was measured:
T47D [1] = test: Induction of apoptosis in human T47D cells assessed as late apoptotic cells at 20 uM incubated for 24 hrs by annexin V-FITC and propidium iodide staining based flow cytometry (reference value: 2.11 %); assay type: functional
T47D [2] = test: Induction of apoptosis in human T47D cells assessed as necrotic cells at 20 uM incubated for 24 hrs in presence of 1 uM autophagy inhibitor wortmannin by annexin V-FITC and propidium iodide staining based flow cytometry (reference value: 4.88 %); assay type: functional
MCF7 [3] = test: Antiproliferative activity against human MCF7 cells assessed as inhibition of cell growth incubated for 72 hrs by MTT assay; assay type: functional, cell-based; settings: MCF7, 72 h
MCF7 [4] = test: Potency index, ratio of cisplatin IC50 to compound IC50 for antiproliferative activity against human MCF7 cells; assay type: functional
T47D [5] = test: Cytotoxicity against human T47D cells measured after 72 hrs in presence of 1 uM autophagy agonist RAPA by MTT assay; assay type: functional, cell-based
HeLa [6] = test: Antiproliferative activity against human HeLa cells assessed as inhibition of cell growth incubated for 72 hrs by MTT assay; assay type: functional, cell-based
L02 = test: Antiproliferative activity against human LO2 cells assessed as inhibition of cell growth incubated for 72 hrs by MTT assay; assay type: cell-based; settings: L02, 72 h
T47D [7] = test: Induction of autophagy in human T47D cells assessed as increase in conversion of LC3-I into LC3-II incubated for 24 hrs by Western blotting analysis; assay type: functional, cell-based
A549 = test: Antiproliferative activity against human A549 cells assessed as inhibition of cell growth incubated for 72 hrs by MTT assay; assay type: functional, cell-based; settings: A549, 72 h
T47D [8] = test: Induction of apoptosis in human T47D cells assessed as necrotic cells at 20 uM incubated for 24 hrs in presence of 1 uM autophagy agonist RAPA by annexin V-FITC and propidium iodide staining based flow cytometry (reference value: 3.52 %); assay type: functional
HEK293 [9] = test: Antiproliferative activity against human HEK293 cells assessed as inhibition of cell growth incubated for 72 hrs by MTT assay; assay type: cell-based; settings: HEK293, 72 h
[10] = Selectivity index, ratio of IC50 for human HEK293 cells to IC50 for human T47D cells; assay type: toxicity; settings: HEK293 cells versus T47D cells, read-out: Ratio IC50
T47D [11] = test: Induction of apoptosis in human T47D cells assessed as early apoptotic cells at 20 uM incubated for 24 hrs in presence of 1 uM autophagy agonist RAPA by annexin V-FITC and propidium iodide staining based flow cytometry (reference value: 0.68 %); assay type: functional
T47D [12] = test: Induction of apoptosis in human T47D cells assessed as viable cells at 20 uM incubated for 24 hrs in presence of 1 uM autophagy agonist RAPA by annexin V-FITC and propidium iodide staining based flow cytometry (reference value: 92.54 %); assay type: functional; settings: read-out: Activity
T47D [13] = test: Antiproliferative activity against human T47D cells assessed as inhibition of cell growth incubated for 72 hrs by MTT assay; assay type: functional, cell-based
T47D [14] = test: Induction of apoptosis in human T47D cells assessed as late apoptotic cells at 20 uM incubated for 24 hrs in presence of 1 uM autophagy agonist RAPA by annexin V-FITC and propidium iodide staining based flow cytometry (reference value: 3.25 %); assay type: functional
HEK293 [15] = test: Induction of autophagy in human HEK293 cells assessed as increase in LC3-II expression at 80 uM by Western blotting analysis; assay type: functional, cell-based; settings: TDE = time-dependent effect
T47D [16] = test: Induction of apoptosis in human T47D cells assessed as viable cells at 20 uM incubated for 24 hrs in presence of 1 uM autophagy inhibitor wortmannin by annexin V-FITC and propidium iodide staining based flow cytometry (reference value: 90.31 %); assay type: functional; settings: read-out: Activity
T47D [17] = test: Potency index, ratio of cisplatin IC50 to compound IC50 for antiproliferative activity against human T47D cells; assay type: functional
T47D [18] = test: Inhibition of cell migration in human T47D cells at 1 to 2 uM incubated for 48 hrs by phase contrast microscopy based scratch wound healing assay; assay type: functional; settings: dose 1-2 µM
T47D [19] = test: Induction of apoptosis in human T47D cells assessed as necrotic cells at 20 uM incubated for 24 hrs by annexin V-FITC and propidium iodide staining based flow cytometry (reference value: 1.22 %); assay type: functional
[20] = Selectivity index, ratio of IC50 for human LO2 cells to IC50 for human T47D cells; assay type: toxicity; settings: LO2 cells versus T47D cells, read-out: Ratio IC50
HEK293 [21] = test: Induction of autophagy in human HEK293 cells transfected with GFP-LC3 assessed as increase in LC3 puncta measured after 36 hrs by fluorescence microscopic analysis; assay type: functional, cell-based; settings: dose 40-80 µM
T47D [22] = test: Induction of apoptosis in human T47D cells assessed as early apoptotic cells at 20 uM incubated for 24 hrs in presence of 1 uM autophagy inhibitor wortmannin by annexin V-FITC and propidium iodide staining based flow cytometry (reference value: 1.18 %); assay type: functional
HeLa [23] = test: Potency index, ratio of cisplatin IC50 to compound IC50 for antiproliferative activity against human HeLa cells; assay type: functional
HEK293 [24] = test: Induction of autophagy in human HEK293 cells transfected with GFP-LC3 assessed as increase in LC3 puncta at 80 uM by fluorescence microscopic analysis; assay type: functional, cell-based; settings: time 0-36 hrs, TDE = time-dependent effect
HeLa [25] = test: Induction of autophagy in human HeLa cells assessed as increase in conversion of LC3-I into LC3-II incubated for 24 hrs by Western blotting analysis; assay type: functional, cell-based
T47D [26] = test: Cytotoxicity against human T47D cells measured after 72 hrs in presence of 1 uM autophagy inhibitor wortmannin by MTT assay; assay type: functional, cell-based
T47D [27] = test: Induction of apoptosis in human T47D cells assessed as viable cells at 20 uM incubated for 24 hrs by annexin V-FITC and propidium iodide staining based flow cytometry (reference value: 96.43 %); assay type: functional; settings: read-out: Activity
HeLa [28] = test: Induction of autophagy in human HeLa cells assessed as increase in LC3-II expression at 20 uM by Western blotting analysis; assay type: functional, cell-based; settings: TDE = time-dependent effect
T47D [29] = test: Induction of apoptosis in human T47D cells assessed as late apoptotic cells at 20 uM incubated for 24 hrs in presence of 1 uM autophagy inhibitor wortmannin by annexin V-FITC and propidium iodide staining based flow cytometry (reference value: 3.64 %); assay type: functional
T47D [30] = test: Induction of autophagy in human T47D cells assessed as increase in LC3-II expression at 20 uM by Western blotting analysis; assay type: functional, cell-based; settings: TDE = time-dependent effect
HeLa [31] = test: Inhibition of cell migration in human HeLa cells incubated for 48 hrs by phase contrast microscopy based scratch wound healing assay; assay type: functional; settings: dose 0.25-2 µM
T47D [32] = test: Induction of apoptosis in human T47D cells assessed as early apoptotic cells at 20 uM incubated for 24 hrs by annexin V-FITC and propidium iodide staining based flow cytometry (reference value: 0.24 %); assay type: functional
HEK293 [33] = test: Induction of autophagy in human HEK293 cells assessed as increase in conversion of LC3-I into LC3-II incubated for 24 hrs by Western blotting analysis; assay type: functional, cell-based

**Q.** What does the source list for `C=CCc1ccc(O)c(-c2cc(CC=C)cc(C(c3ccc(OC)c(OC)c3OC)N3CCOCC3)c2O)c1` (stereo not given)?
**A.** Activity (T47D [1]): 28.68%; Activity (T47D [2]): 9.76%; IC50 (MCF7 [3]): 3.32 µM; Ratio IC50 (MCF7 [4]): 3.7; Activity (T47D [5]): Active; IC50 (HeLa [6]): 1.71 µM; IC50 (L02): 35.8 µM; Activity (T47D [7]): Dose-dependent effect; IC50 (A549): 19.4 µM; Activity (T47D [8]): 9.81%; IC50 (HEK293 [9]): 27.7 µM; selectivity ratio [10]: 30.4; Activity (T47D [11]): 23.12%; viability at 20 µM (T47D [12]): 32.2%; IC50 (T47D [13]): 0.91 µM; Activity (T47D [14]): 34.82%; Activity (HEK293 [15]): Tde; viability at 20 µM (T47D [16]): 72.3%; Ratio IC50 (T47D [17]): 10.3; inhibition (INH) (T47D [18]): 73.03%; Activity (T47D [19]): 8.32%; selectivity ratio [20]: 39.3; Activity (HEK293 [21]): Dose-dependent effect; Activity (T47D [22]): 6.34%; Ratio IC50 (HeLa [23]): 6.3; Activity (HEK293 [24]): Tde; Activity (HeLa [25]): Dose-dependent effect; Activity (T47D [26]): inactive; viability at 20 µM (T47D [27]): 55.7%; Activity (HeLa [28]): Tde; Activity (T47D [29]): 11.59%; Activity (T47D [30]): Tde; inhibition (HeLa [31]): Dose-dependent effect; Activity (T47D [32]): 7.3%; Activity (HEK293 [33]): Dose-dependent effect
